From patent publication US4443619A, “Chlorocitric acids” (Hoffmann-La Roche Inc., priority 1981, dated 1984)

Experiments:
[1] = Food intake in dogs, pyramiding oral doses (Examples 26 and 27); assay type: in vivo, beagle dogs
Description: Twelve beagle dogs of both sexes weighing 7.6-12.2 kg were used for this test. The test compounds were contained in gelatin capsules for oral administration to two dogs of each sex. The animals were weighed and food consumption calculated daily excluding weekends throughout the test period. Each animal received 800 grams of diet daily consisting of 400 grams of Wayne pellet dog food mixed with 400 ml distilled water. The animals received pyramiding oral doses of the test compound over the three week period. On Monday and Tuesday of the first week the animals were weighed and food consumption was recorded (control). The animals received 3 mg/kg on Wednesday and 10 mg/kg on Friday of the first week. Doses of 30, 100 and 300 mg/kg were administered on Monday, Wednesday and Friday respectively during the second week. A final dose of 1000 mg/kg was administered on Monday of the third week.
Food intake was determined by the procedure by pyramiding doses described in Example 26.

Stomach Emptying = assay: Effect on stomach emptying ([14C]glucose load) in rats (Example 25); assay type: in vivo; conditions: 0.33 mmoles/kg oral, 60 min after [14C]glucose load, mean ± S.E.
Description: Rats were trained to consume a 3 hr 70% glucose meal from 8 a.m. to 11 a.m. daily. On the experimental day, compounds were administered orally by intubation 30 min before a [^14 C]glucose load was given also by intubation. […] Sixty minutes later the rats were killed by decapitation; blood and stomachs were collected on ice.
Data are expressed as follows: dpm×10^3 per ml of serum and dpm×10^3 per stomach.

[2] = Body weight gain in 8 hour meal-fed Zucker rats (Example 18); assay type: in vivo, lean (Fa/-) and obese (fa/fa); conditions: 6 days, mean ± S.E.
Description: (§1) Lean (Fa/-) Zucker rats and obese (fa/fa) Zucker rats of both sexes were individually housed in wire-bottomed cages in a temperature-regulated (22° C.) light-controlled room (12 hr light, 6 a.m. to 6 p.m. and 12 hr dark, 6 p.m. to 6 a.m.). The animals were fed a high carbohydrate (70% glucose) diet ad libitum for 13 days, dosed with the indicated compounds by oral intubation for 9 days and allowed to recover for 3 days. The animals were then meal fed from 8 a.m. to 4 p.m. for a period of 5 days, following which they were continued on the same meal schedule for an additional 6 days. During the 6-day period, the animals were administered the indicated compounds by oral intubation at 8 a.m. and 12 p.m. Body weight gain during the 6-day period was determined.

[3] = Food consumption of three diets in meal-fed rats (Example 15); assay type: in vivo, Charles River female rats; conditions: mean ± S.E.
Description: Charles River female rats (Charles River Breeding Laboratories, Wilmington, Mass.), weighing 170 to 200 g, were individually housed in wire-bottomed cages in a temperature-regulated (22° C.) light-controlled room (12 hr light, 6 a.m. to 6 p.m. and 12 hr dark, 6 p.m. to 6 a.m.). Animals were fasted 48 hr, then meal-fed the indicated diets from 8 to 11 a.m. Following 5 to 12 days alimentation on the meal-feeding regimen, rats were dosed with the appropriate compounds orally by intubation 1/2 hr before the 3 hr meal. Food cups were weighed immediately after the 1st, 2nd and 3rd hr of the meal. The control groups consisted of 8 to 10 rats and the experimental group considered of 5 to 6 rats.

[4] = Effect of stereoisomers of chlorocitric acid on food consumption in meal-fed rats (Example 14); assay type: in vivo, Charles River female rats; conditions: mean ± S.E.
Description: Animals were fasted 48 hr, then meal-fed the 70% glucose diet described by A. C. […] Following 5 to 12 days alimentation on the meal-feeding regimen, rats were dosed with the appropriate compounds orally by intubation 1/2 hr before the 3 hr meal. Food cups were weighed immediately after the meal. The control group consisted of 5 to 10 rats, while the experimental group consisted of 4 to 6 rats.

[5] = Anorectic activities of stereoisomers: 3-day food consumption and body weight gain in meal-fed rats; assay type: in vivo, Charles River female rats; conditions: 1.32 mmoles/kg oral, 3 days, mean ± S.E.
Description: Charles River female rats (Charles River Breeding Laboratories, Wilmington, Mass.), weighing 196 to 210 g, were individually housed in wire-bottomed cages in a temperature-regulated (22° C.) light-controlled room (12 hr light, 6 a.m. to 6 p.m. and 12 hr dark, 6 p.m. to 6 a.m.). Animals were fasted 48 hr, then meal-fed a 70% glucose diet from 8 to 11 a.m. Following 5 to 12 days alimentation on the meal-feeding regimen, rats were dosed with the appropriate compounds orally by intubation 1/2 hr before the 3 hr meal for 3 days. The total food consumption and body weight gained during the 3 day period were determined. The control group consisted of 16 rats, while the experimental group consists of 8 rats.

[6] = Anorectic effect in 8 hour meal-fed Zucker rats (Example 17); assay type: in vivo, lean (Fa/-) and obese (fa/fa)
Description: as §1, with “p.m.” for “p.m. to”, “Food cups were weighed immediately after” for “Body weight gain during”, “meal.” for “6-day period was determined.”

[7] = Anorectic activity, body weight and carcass analysis in mammals (summary statements); assay type: in vivo; conditions: acute meal-fed assay utilizing three diets and pyramiding dose studies; compared with hydroxycitric acid
[8] = test day 20, no dose, (±) one animal, (+) and (-) two animals
[9] = 20% Corn Oil, 0.33 mmoles (75 mg)/kg oral
[10] = 20% Corn Oil, 0.66 mmoles (150 mg)/kg oral
[11] = 70% Glucose, 0.33 mmoles (75 mg)/kg oral
[12] = 70% Glucose, 0.66 mmoles (150 mg)/kg oral
[13] = Chow, 0.33 mmoles (75 mg)/kg oral
[14] = Chow, 0.66 mmoles (150 mg)/kg oral
[15] = 2.63 mmoles/kg oral, control 13.5 ± 0.8

## O=C(O)C[C@](O)(C(=O)O)[C@H](Cl)C(=O)O [(+)-threo-Chlorocitric acid, (+)-threo-chlorocitric acid]
[1]; [8]
  Food Consumption, % of control: 96 % of control
  Food consumption: 583 ± 17 g
[1]; test days -2, -1, before dosing (control period)
  Food consumption: 610 ± 43 g
Stomach Emptying
  Serum, total per ml: 3.4 ± 0.6 dpm × 10^3
  Stomach Contents, total per stomach: 1946 ± 361 dpm × 10^3
[2]; Fa/- lean, 0.66 mmoles/kg b.i.d. oral
  Body Weight Gain: 2.5 ± 2.3 g
[2]; fa/fa obese, 0.66 mmoles/kg b.i.d. oral
  Body Weight Gain: -3.6 ± 2.0 g
[3]; [9]
  Food intake, 1st hr: 7.1 ± 1.2 g
  Food intake, 2nd hr: 3.9 ± 0.5 g
  Food intake, 3rd hr: 3.2 ± 0.6 g
  Food intake, Total: 14.2 ± 1.2 g
[3]; [10]
  Food intake, 1st hr: 6.7 ± 1.6 g
  Food intake, 2nd hr: 3.1 ± 0.6 g
  Food intake, 3rd hr: 2.2 ± 0.7 g
  Food intake, Total: 12.3 ± 1.6 g
[3]; [11]
  Food intake, 1st hr: 6.2 ± 1.8 g
  Food intake, 2nd hr: 2.4 ± 0.8 g
  Food intake, 3rd hr: 2.4 ± 0.5 g
  Food intake, Total: 11.0 ± 2.3 g
[3]; [12]
  Food intake, 1st hr: 3.2 ± 0.5 g
  Food intake, 2nd hr: 5.1 ± 1.3 g
  Food intake, 3rd hr: 1.7 ± 0.3 g
  Food intake, Total: 10.1 ± 1.7 g
[3]; [13]
  Food intake, 1st hr: 7.4 ± 0.6 g
  Food intake, 2nd hr: 2.6 ± 0.7 g
  Food intake, 3rd hr: 2.2 ± 0.5 g
  Food intake, Total: 12.2 ± 0.4 g
[3]; [14]
  Food intake, 1st hr: 7.7 ± 0.5 g
  Food intake, 2nd hr: 3.9 ± 0.5 g
  Food intake, 3rd hr: 1.8 ± 0.9 g
  Food intake, Total: 13.4 ± 0.9 g
[4]; 0.66 mmoles/kg oral, control 8.2 ± 1.2
  Food consumption: 6.8 ± 1.0 g
[4]; [15]
  Food consumption: 5.1 ± 1.2 g
[5]
  3-Day Body Weight Gain: -3.5 ± 1.2 g
  3-Day Food Consumption: 26.5 ± 1.3 g
[6]; Fa/- lean, 0.66 mmoles/kg oral, treatment day 1
  Daily Food Consumption: 10.1 ± 0.8 g
[6]; Fa/- lean, 0.66 mmoles/kg oral, treatment day 2
  Daily Food Consumption: 8.7 ± 0.3 g
[6]; Fa/- lean, 0.66 mmoles/kg oral, treatment day 3
  Daily Food Consumption: 11.7 ± 0.7 g
[6]; Fa/- lean, 0.66 mmoles/kg oral, treatment day 4
  Daily Food Consumption: 9.8 ± 0.9 g
[6]; Fa/- lean, 0.66 mmoles/kg oral, treatment day 5
  Daily Food Consumption: 12.8 ± 0.9 g
[6]; Fa/- lean, 0.66 mmoles/kg oral, treatment day 6
  Daily Food Consumption: 11.4 ± 0.7 g
[6]; Fa/- lean, 0.66 mmoles/kg, day 0 (pretreatment)
  Daily Food Consumption: 10.6 ± 0.8 g
[6]; fa/fa obese, 0.66 mmoles/kg oral, treatment day 1
  Daily Food Consumption: 10.3 ± 0.4 g
[6]; fa/fa obese, 0.66 mmoles/kg oral, treatment day 2
  Daily Food Consumption: 8.8 ± 0.8 g
[6]; fa/fa obese, 0.66 mmoles/kg oral, treatment day 3
  Daily Food Consumption: 11.3 ± 1.0 g
[6]; fa/fa obese, 0.66 mmoles/kg oral, treatment day 4
  Daily Food Consumption: 11.6 ± 1.2 g
[6]; fa/fa obese, 0.66 mmoles/kg oral, treatment day 5
  Daily Food Consumption: 12.3 ± 1.5 g
[6]; fa/fa obese, 0.66 mmoles/kg oral, treatment day 6
  Daily Food Consumption: 14.2 ± 1.8 g
[6]; fa/fa obese, 0.66 mmoles/kg, day 0 (pretreatment)
  Daily Food Consumption: 14.3 ± 1.4 g

## O=C(O)CC(O)(CC(=O)O)C(=O)O [Citric Acid]
[7]
  anorectic activity as measured by reduction in food consumption: inactive
[2]; Fa/- lean, 1.32 mmoles/kg b.i.d. oral
  Body Weight Gain: 2.8 ± 3.7 g
[2]; fa/fa obese, 1.32 mmoles/kg b.i.d. oral
  Body Weight Gain: 3.4 ± 1.6 g
[4]; [15]
  Food consumption: 12.7 ± 1.7 g
[6]; Fa/- lean, 1.32 mmoles/kg oral, treatment day 1
  Daily Food Consumption: 10.6 ± 1.2 g
[6]; Fa/- lean, 1.32 mmoles/kg oral, treatment day 2
  Daily Food Consumption: 10.0 ± 1.2 g
[6]; Fa/- lean, 1.32 mmoles/kg oral, treatment day 3
  Daily Food Consumption: 12.7 ± 1.0 g
[6]; Fa/- lean, 1.32 mmoles/kg oral, treatment day 4
  Daily Food Consumption: 11.9 ± 0.7 g
[6]; Fa/- lean, 1.32 mmoles/kg oral, treatment day 5
  Daily Food Consumption: 12.6 ± 0.8 g
[6]; Fa/- lean, 1.32 mmoles/kg oral, treatment day 6
  Daily Food Consumption: 13.1 ± 0.9 g
[6]; Fa/- lean, 1.32 mmoles/kg, day 0 (pretreatment)
  Daily Food Consumption: 11.0 ± 0.8 g
[6]; fa/fa obese, 1.32 mmoles/kg oral, treatment day 1
  Daily Food Consumption: 11.4 ± 0.8 g
[6]; fa/fa obese, 1.32 mmoles/kg oral, treatment day 2
  Daily Food Consumption: 13.8 ± 1.2 g
[6]; fa/fa obese, 1.32 mmoles/kg oral, treatment day 3
  Daily Food Consumption: 16.5 ± 1.0 g
[6]; fa/fa obese, 1.32 mmoles/kg oral, treatment day 4
  Daily Food Consumption: 14.8 ± 0.9 g
[6]; fa/fa obese, 1.32 mmoles/kg oral, treatment day 5
  Daily Food Consumption: 15.7 g
[6]; fa/fa obese, 1.32 mmoles/kg oral, treatment day 6
  Daily Food Consumption: 16.0 ± 1.0 g
[6]; fa/fa obese, 1.32 mmoles/kg, day 0 (pretreatment)
  Daily Food Consumption: 13.4 ± 0.8 g
